Where “and” joins values, the source holds several entries; their conditions need not be identical. Equal entries are not always repeated. Entries after “also recorded” stand apart in the source; their conditions may differ.
How the values were obtained:
CB CD34+ cells [1] = assay: Ex vivo expansion of CB CD34+ cells with HDACIs, phenotypic analysis by flow cytometry; assay type: cell-based, human; conditions: for fold expansion of CD34+ cells / fold expansion of CD34+CD90+ cells: cytokines
Text: CB collections were purchased from the Placental Blood Program at the New York Blood Center. CB-MNCs were isolated by Ficoll-Hypaque density centrifugation, and CD34+ cells were purified by immunotnagnetic selection as previously described (Chaurasia et al., “Chromatin-Modifying Agents Promote the Ex vivo Production of Functional Human Erythroid Progenitor Cells,” Blood 117:4632-4641 (2011), which is hereby incorporated by reference in its entirety). Highly purified (90%-98%) PCs (4.0-5.0×10^4) were cultured in SF Stemline II (Sigma-Aldrich) culture medium or IMDM (Lonza) containing 30% FBS (HyClone Laboratories) supplemented with 150 ng/ml SCF, 100 ng/ml fms-like tyrosine kinase receptor 3 (FLT3 ligand), 100 ng/ml thrombopoietin (TPO), and 50 ng/ml interleukin 3 (IL-3) (R&D Systems) and incubated in a humidified incubator maintained at 37° C. with 5% CO2. […] The cell populations studied and the various conditions under which they were cultured are referred to by specific terms listed in Table 1. Viable PC and cultured cells were enumerated using the trypan blue exclusion method. The fold expansion of CD34+ cells or subpopulations was calculated based on the number of CD34+ cells determined to be present in an individual CB collection and the number of CD34+ cells that would have been generated if all of the CD34+ cells within that primary CB collection were cultured using the various culture conditions described. PC or cultured cells expanded in the presence or absence of HDACIs were stained with an anti-human CD34 mAb or an isotype-matched control mAb and analyzed using a FACSCanto II (BD). CD34+ cells were re-isolated using a CD34+ cell isolation kit, as previously described, for further phenotypic and functional analyses. All mAbs were purchased from BD Biosciences and Cell Signaling Technology. Phenotypic analyses ([…], […], and […]7) of the ex vivo-expanded cells after 7 days in control cultures or cytokines plus an HDACI were performed as previously described (Chaurasia et al., “Chromatin-Modifying Agents Promote the Ex vivo Production of Functional Human Erythroid Progenitor Cells,” Blood 117:4632-4641 (2011), which is hereby incorporated by reference in its entirety).

NSG mice [2] = assay: Homing assay of re-isolated CD34+ cells in NSG mice; assay type: in vivo; conditions: 16 and 48 hours after infusion, versus control conditions
Method: The homing of re-isolated CD34+ cells (5×10^5/mouse) after treatment under control conditions or with VPA was performed as previously described (Shivtiel et at, “CD45 Regulates Homing and Engraftment of Immature Normal and Leukemic Human Cells in Transplanted Immunodeficient Mice,” Exp. Hematol. 39(12):1161-1170 (2011), which is hereby incorporated by reference in its entirety). The recipient NSG mice were purchased from the Jackson Laboratory and sublethally irradiated (300 cGy) 4 hours prior to infusion of the re-isolated CD34+ cells via the tail vein. Sixteen and 48 hours after their infusion, BM cells were harvested from 2 femurs and 2 tibias from each recipient mouse and analyzed by flow cytometry for the presence of human CD34+ cells using a human CD34-APC mAb. The homing of these cell populations was determined by quantitating the number of CD34+ cells per 10^6 acquired events in the BM of the recipient mice. […] Eight NSG mice received CD34+ cells cultured under control conditions, and 10 mice received CD34+ cells from VPA-containing cultures.

HDAC1 = assay: HDAC protein levels in CB-MNCs, Western blot densitometry; assay type: cell-based, human; conditions: 24 hr, SCR 8 μM, C433 80 μM, VPA 1.25 mM
HDAC2 = assay: as above; assay type: cell-based, human; conditions: 24 hr, SCR 8 μM, C433 80 μM, VPA 1.25 mM
HDAC5 = assay: as above; assay type: cell-based, human; conditions: 24 hr, SCR 8 μM, C433 80 μM, VPA 1.25 mM
Text: Cellular proteins were separated by SDS-PAGE using Novex (Invitrogen) and transferred by iBlot (Invitrogen). The membranes were probed with mAbs against individual histone deacetylases (HDAC1, HDAC2, HDAC3, HDAC4, HDAC5, HDAC6, and β-actin; Cell Signaling Technology) and developed using a chemiluminescence system with HRP-conjugated secondary antibodies (Amersham Biosciences) according to the manufacturer's instructions.

NSG mice [3] = assay: Teratoma formation assay in NSG mice; assay type: in vivo; conditions: 1×10^6 re-isolated CD34+ cells subcutaneously, 8 weeks
Method: CD34+ cells (1×10^6) re-isolated from control cultures or cultures containing VPA or a similar number of ES cells were suspended in 100 μl of PBS. These cells were mixed with an equal volume of ice-cold Matrigel and injected subcutaneously into the right hind limb of three NSG mice per group (re-isolated CD34+ cells from control cultures, VPA-treated cultures, and ES cells). The mice were observed weekly for teratoma formation and sacrificed after 8 weeks. Teratomas were dissected, fixed, sectioned, and stained with H&E and examined morphologically (O'Connor et al., “Functional Assays for Human Embryonic Stem Cell Pluripotency,” Methods Mol Biol. 690:67-80 (2011), which is hereby incorporated by reference in its entirety).

[4] = system: ALDH+CD34+ and ALDH-CD34+ cells; assay: BFU-E + CFU-Mix generated from sorted ALDH+CD34+ and ALDH-CD34+ cells; assay type: cell-based, human
Text: A far greater number of BFU-E+CFU-Mix were generated from ALDH+CD34+ cells generated in the presence of each of the HDACI in SF cultures as compared with SC cultures (ANOVA, p=0.001). By contrast, a greater number of BFU-E+CFU-Mix were generated from ALDH-CD34+ cells in SC cultures as compared to SF cultures. Mean±SE, ANOVA, p=0.01 (n=3).
Purified ALDH+CD34+ cells generated using SF cultures supplemented with VPA generated greater absolute numbers of BFU-E and CFU-Mix (8.4×10^7±6.7×10^7/CB collection) as compared to SC cultures (1.4×10^7±0.88×10^7; ANOVA, p=0.001) (FIG. 20A). By contrast, ALDH-CD34+ cells from SC cultures supplemented with VPA generated greater numbers of BFU-E and CFU-Mix (2.7×10^6±1.0×10^6) as compared to SF cultures (3.5×10^5±0.78×10^5) (ANOVA, p=0.01) (FIG. 20B).

CB CD34+ cells [5] = assay: Ex vivo expansion of CB CD34+ cells with HDACIs, phenotypic analysis by flow cytometry; assay type: cell-based, human; conditions: VPA alone (no cytokines), SF, 7 days after 16 h priming
[6] = SF cultures containing VPA, 7 days
[7] = SC cultures supplemented with VPA
[8] = SF cultures supplemented with VPA

For `CCCC(CCC)C(=O)O` [VPA, valproic acid], the “percentage of CD34+CD90+ cells” value (CB CD34+ cells [1]; 7 days of culture with cytokines plus HDACI) was 75.2%±10.7% and 74.2±9.8%, the “fold expansion of CD34+ cells” value (CB CD34+ cells [1]; SC conditions, 7 days) was 78 fold and the “fold expansion of CD34+CD90+ cells” value (CB CD34+ cells [1]; SC conditions, 7 days) was 89 fold. For the same molecule, the “fold expansion of CD34+ cells” value (CB CD34+ cells [1]; SF conditions, 7 days) was 213 fold, the “fold expansion of CD34+CD90+ cells” value (CB CD34+ cells [1]; SF conditions, 7 days) was 20,202 fold and the “CD34+CD90+ cells expressing CD45RA” value (CB CD34+ cells [1]; [6]) was 1.9%±2.1%. For the same molecule, the “CD34+CD90+ cells expressing CD49f” value (CB CD34+ cells [1]; [6]) was 47.0%±4.4%, the “B Cells (CD19)” value (CB CD34+ cells [1]; VPA-treated cells after 7 days) was 0.5±0.1% and the “CD14+ cells” value (CB CD34+ cells [1]; VPA-treated cells after 7 days) was 3.9±1.5%. The “CD41+ cells” value (CB CD34+ cells [1]; VPA-treated cells after 7 days) was 8.9±2.0%, the “Glycophorin+ cells” value (CB CD34+ cells [1]; VPA-treated cells after 7 days) was 17.0±5.4% and the “T Cells (CD3)” value (CB CD34+ cells [1]; VPA-treated cells after 7 days) was 0.2±0.3%. The “homing of CD34+ cells to the marrow of NSG mice” value (NSG mice [2]) was “increased horning of CD34+ cells”, the “HDAC1 expression relative to b-ACTIN (%)” value (HDAC1) was 25.48 ± 7.78% and the “HDAC2 expression relative to b-ACTIN (%)” value (HDAC2) was 45.8 ± 25.2%. The “HDAC5 expression relative to b-ACTIN (%)” value (HDAC5) was 21.4 ± 10.7%, the teratoma formation (NSG mice [3]) was “did not form teratomas; also recorded: neither control nor VPA treated CD34+ cells formed teratomas” and the “absolute numbers of BFU-E and CFU-Mix from ALDH+CD34+ cells” value [4, 7] was 1.4×10^7±0.88×10^7. For the same molecule, the “numbers of BFU-E and CFU-Mix from ALDH-CD34+ cells” value [4, 7] was 2.7×10^6±1.0×10^6, the “absolute numbers of BFU-E and CFU-Mix from ALDH+CD34+ cells” value [4, 8] was 8.4×10^7±6.7×10^7 /CB collection and the “numbers of BFU-E and CFU-Mix from ALDH-CD34+ cells” value [4, 8] was 3.5×10^5±0.78×10^5. The “fold expansion of CD34+ cells per CB collection” value (CB CD34+ cells [5]) was 9.0 fold and the “fold expansion of CD34+CD90+ cells per CB collection” value (CB CD34+ cells [5]) was 486 fold.

Reference: patent publication US11261429B2, “Enriched and expanded human cord blood stem cells for treatment of hematological disorders” (ICAHN SCHOOL OF MEDICINE AT MOUNT SINAI, priority 2013, dated 2022)
